Assay results from patent US6156762A, “Indolomorphinan derivative and agent for curing and preventing cerebral disorder” (Toray Industries, Inc., priority 1997, dated 2000).

Tests used:
[1] = system: middle cerebral artery ischemia model of rat; assay: Infarction inhibiting action in middle cerebral artery ischemia (MCAo-recirculation) model of rat; format: in vivo; conditions: ip, 24 h, 3 mg/kg i.p. 10 minutes before occlusion and 1 hour after recirculation, infarction volume one day after, vs control group, read-out: Rate of inhibition of infarction
Text: It is also known that, in this way, in the acute stage of cerebral infarction, the lesion proceeds to the peripheral tissue from the core of infarction, and death of the nerve cells is extended with the passage of several days. This possible not only extends and creates grave aftereffects, and causes loss of motor and mental function, but also finally critically influences on the life. As an in vivo experimental model of cerebral infarction which is capable of precisely evaluating the clinical effect of a medicine in conformity with clinical conditions of the disease of a patient of cerebral infarction, the middle cerebral artery occlusion (MCAo)-recirculation model comprising an embolus with a yarn using Wister rates may be used [Document: Japan Journal of Stroke, vol. 8, 1 (1986)]. […] This action was evaluated by applying the MCAo model by the method which will be described below.
In rats of 10 weeks old, after etherization, a median incision of the cervical region was made up to the right carotid artery bifurcation under 1.0% halothane anesthetization with care to preserve the vagus nerves. The common carotid artery and the external carotid artery were separated from the periphery connective tissue with the right carotid artery bifurcation as the center, and each of the arteries was ligated by a 6-0 silk yarn (Eto yarn). Further, a yarn was wound on the internal carotid artery origin in preparation for ligation and fixing after insertion of the embolus. Next, the common carotid artery was incised, and the embolus was inserted from the common carotid artery to the internal carotid artery by about 15 to 16 mm, and ligated and fixed to the internal carotid artery by the silk yarn at the end thereof near the nylon yarn. In this operation, the end of the embolus was inserted into the anterior cerebral artery by about 1 to 2 mm beyond the middle cerebral artery bifurcation, and the inlet of the middle cerebral artery was occluded by the body (resin part) of the embolus for 1 hours. In recirculation, the embolus with a yarn was removed to recirculate the blood flow to the middle cerebral artery. 3 mg/kg of each of test compounds was intraperitoneally administered 10 minutes before occlusion and 1 hour after recirculation of the blood flow. One day after occlusion and recirculation, the whole body was perfused with physiologic saline through the heart, and the brain was extracted. The extracted brain was cooled with ice and water for 5 minutes, and cut at intervals of 2.0 mm to form 7 sections of the cerebral coronal surface. Each of the sections was stained with TTC (Triphenyltetrazolium Chloride), and fixed by a 5% neutral buffer formalin solution. In each of the sections, the infarction area in the right cerebral hemisphere was measured by an image analyzer (Olympus), and the infarction was evaluated by volume (mm^3). The infarction volume was compared with the infarction volume of a control group to calculate the rate of inhibition of infarction.

[2] = system: cultured nerve cells; assay: Action of protecting cultured nerve cells from glutamic acid toxicity (LDH leakage); format: cell-based, Wistar rat; conditions: rat fetal cerebral cortex cells, 10 mM glutamic acid, 24 hours, read-out: ED50 (the source's name)
Text: It is known that when the blood flow to the brain is temporarily clogged due to cerebral ischemia, hypoxia, or an trauma, delayed cerebral neuronal death is induced [Document: Brain Research, Vol. 239, 57 (1982)]. A possible cause of such damage of the cerebral nerve cells is excitatory toxicity due to an excitatory neutotransmitter such as glutamic acid or the like, which is excessively released with ischemia [Document: Trends in Neuroscience, vol. 10, 299 (1987)]. […] This is a problem to be solved by the invention. This action was evaluated by using the in vitro evaluation system which will be described below.
A fetus was taken from the abdomen of a Wistar female rat on the 18 to 19th day of pregnancy under aseptic conditions, and the head of the fetus was opened to extract the brain. The brain was placed in an ice-cooled L-15 medium, and the cerebral cortex was separated under a microscope. The cerebral cortexes of about 30 rats were cut into pieces, and then suspended in 10 ml of a 0.25% trypsin solution and 0.2 ml of a 0.01% DNase solution, followed by culture at 37° C. for 30 minutes. Then, 2 ml of serum was added to the solution, and immediately the resultant mixture was centrifuged at 120 rpm for 2 minutes to separate the precipitates. To the precipitates was added 7 ml of a DF medium (a medium obtained by adding 20 nM of transferrin, 5 μg/ml of insulin, 20 nM of progesterone,60 nM of selenite, 50 U/ml of penicillin, and 50 U/ml of streptomycin to a mixture equivalent amounts of Dulbecco modified Eagle medium and F-12 medium), followed by 20 pipetting operations using a 10-ml plastic pipette to obtain a cell suspension. The cell suspension was filtered with nylon mesh (pore diameter 43 μm) to fractionate isolated cells. The thus-obtained isolated cells were diluted with a DF medium to a concentration of 6.0×10^5 cells/ml, and 500 μl of the diluted cells was inoculated in each of the 48 wells of a 48-well culture plate precoated with polylysine, followed by culture at 37° C. for 1 day in the presence of 5% of CO2. On the 2nd day, the medium was changed to a new DF medium, and 10 μl of a solution of 0.5M glutamic acid in distilled water was added to each of the wells (the final glutamic acid concentration was 10 mM), followed by further culture at 37° C. for 24 hours in the presence 5% of CO2. A test compound was dissolved in distilled water, 10% or 100% DMSO or 10% methanol, and 5 μl of the solution was added to each of the wells immediately before glutamic acid was added. As an index of nerve cell damage, the enzyme activity of lactic acid dehydrogenase (LDH) leaking from the damaged cells into the medium was measured. For each of the test compounds, the LDH leakage was measured at each of concentrations to determine a dose-response curve by the modified Cochran-Armitige method. The 50% effective dose (ED50) of each of the test compounds we determined from the curve.

SMILES | inhibition in vivo at 3 mg/kg [1] | EC50 [2]
COc1ccc2c3c1O[C@H]1c4[nH]c5ccc(C(C)(C)C)cc5c4C[C@@]4(O)[C@@H](C2)N(CC2CC2)CC[C@]314 [Compound 16, 17-cyclopropylmethyl-3-methoxy-14β-hydroxy-6,7-dehydro-4,5α-epoxy-6,7,2',3'-(5'-t-butylindolo)morphinan] | 22% | 
Oc1ccc2c3c1O[C@H]1c4[nH]c5c(cc(Cl)c6ccccc65)c4C[C@@]4(O)[C@@H](C2)N(CC2CC2)CC[C@]314 [Compound 10, 17-cyclopropylmethyl-3,14β-dihydroxy-6,7-dehydro-4,5α-epoxy-6,7,2',3'-(5'-chloro-6',7'-benzoindolo)morphinan] | 15% | 
Oc1ccc2c3c1O[C@H]1c4[nH]c5c(cc(-c6ccccc6)c6ccccc65)c4C[C@@]4(O)[C@@H](C2)N(CC2CC2)CC[C@]314 [Compound 15, 17-cyclopropylmethyl-3,14β-dihydroxy-6,7-dehydro-4,5α-epoxy-6,7,2',3'-(5'-phenyl-6',7'-benzoindolo)morphinan] |  | 150 nM
O=C(CCCCCc1ccccc1)NCCCn1c2c(c3ccccc31)C[C@@]1(O)[C@H]3Cc4ccc(O)c5c4[C@@]1(CCN3CC1CC1)[C@H]2O5 [Compound 62, 17-cyclopropylmethyl-3,14β-dihydroxy-6,7-dehydro-4,5α-epoxy-6,7,2',3'-[1'-[3-(6-phenylhexanoamido)propyl]indolo]morphinan] | 10% | 
NCCCn1c2c(c3ccccc31)C[C@@]1(O)[C@H]3Cc4ccc(O)c5c4[C@@]1(CCN3CC1CC1)[C@H]2O5 [Compound 24, 17-cyclopropylmethyl-3,14β-dihydroxy-6,7-dehydro-4,5α-epoxy-6,7,2',3'-[1'-(3-aminopropyl)indolo]morphinan] |  | 800 nM
Oc1ccc2c3c1O[C@H]1c4[nH]c5c(ccc6ccccc65)c4C[C@@]4(O)[C@@H](C2)NCC[C@]314 [Compound 73, 3, 14β-dihydroxy-6,7-dehydro-4,5α-epoxy-6,7,2',3'-(6',7'-benzoindolo)morphinan] | 34% | 
Oc1ccc2c3c1O[C@H]1c4[nH]c5c6c(ccc5c4C[C@@]4(O)[C@@H](C2)N(CC2CC2)CC[C@]314)Cc1ccccc1-6 [Compound 22, 17-cyclopropylmethyl-3,14β-dihydroxy-6,7-dehydro-4,5α-epoxy-6,7,2',3'-(6',7',2",3"-indenoindolo)morphinan] |  | 50 nM
Oc1ccc2c3c1O[C@H]1c4c(c5cc6c7c(cccc7c5n4Cc4ccccc4)CC6)C[C@@]4(O)[C@@H](C2)N(CC2CC2)CC[C@]314 [Compound 83, 17-cyclopropylmethyl-3,14β-dihydroxy-6,7-dehydro-4,5α-epoxy-6,7,2',3'-(1'-benzyl-5',6"-ethano-6',7'-benzoindolo)morphinan] |  | 73 nM
CCCCCCCc1ccc2c3c([nH]c2c1)[C@@H]1Oc2c(O)ccc4c2[C@@]12CCN(CC1CC1)[C@H](C4)[C@]2(O)C3 [Compound 7, 17-cyclopropylmethyl-3,14β-dihydroxy-6,7-dehydro-4,5α-epoxy-6,7,2',3'-(6'-heptylindolo)morphinan] |  | 200 nM
Oc1ccc2c3c1O[C@H]1c4c(c5ccccc5n4Cc4ccccc4)C[C@@]4(O)[C@@H](C2)N(CC2CC2)CC[C@]314 [Compound 68, 17-cyclopropylmethyl-3,14β-dihydroxy-6,7-dehydro-4,5α-epoxy-6,7,2',3'-(1'-benzylindolo)morphinan] |  | 91 nM
Oc1ccc2c3c1O[C@H]1c4c(c5ccccc5n4CCCN=C=S)C[C@@]4(O)[C@@H](C2)N(CC2CC2)CC[C@]314 [Compound 59, 17-cyclopropylmethyl-3,14β-dihydroxy-6,7-dehydro-4,5α-epoxy-6,7,2',3'-[1'-(3-isothiocyanatopropyl)indolo]morphinan] |  | 110 nM
O=C(/C=C/c1cccc(C(F)(F)F)c1)NCCCn1c2c(c3ccc4ccccc4c31)C[C@@]1(O)[C@H]3Cc4ccc(O)c5c4[C@@]1(CCN3CC1CC1)[C@H]2O5 [Compound 65, 17-cyclopropylmethyl-3,14β-dihydroxy-6,7-dehydro-4,5α-epoxy-6,7,2',3'-[1'-(3-(3-trifluoromethylcinnamamido)propyl)-6',7'-benzoindolo]morphinan] |  | 110 nM
Oc1ccc2c3c1O[C@H]1c4c(c5ccccc5n4-c4ccccc4)C[C@@]4(O)[C@@H](C2)N(CC2CC2)CC[C@]314 [Compound 4, 17-cyclopropylmethyl-3,14β-dihydroxy-6,7-dehydro-4,5α-epoxy-6,7,2',3'-(1'-phenylindolo)morphinan] |  | 80 nM
N#Cc1cc2c3c([nH]c2c2ccccc12)[C@@H]1Oc2c(O)ccc4c2[C@@]12CCN(CC1CC1)[C@H](C4)[C@]2(O)C3 [Compound 11, 17-cyclopropylmethyl-3,14β-dihydroxy-6,7-dehydro-4,5α-epoxy-6,7,2',3'-(5'-cyano-6',7'-benzoindolo)morphian] |  | 138 nM
O=C(/C=C/c1cccc(C(F)(F)F)c1)NCCCn1c2c(c3ccccc31)C[C@@]1(O)[C@H]3Cc4ccc(O)c5c4[C@@]1(CCN3CC1CC1)[C@H]2O5 [Compound 63, 17-cyclopropylmethyl-3,14β-dihydroxy-6,7-dehydro-4,5α-epoxy-6,7,2',3'-[1'-[3-(3-trifluoromethylcinnamido)propyl]indolo]morphinan] |  | 150 nM
Oc1ccc2c3c1O[C@H]1c4c(c5ccc6ccccc6c5n4CCCN=C=S)C[C@@]4(O)[C@@H](C2)N(CC2CC2)CC[C@]314 [Compound 60, 17-cyclopropylmethyl-3,14β-dihydroxy-6,7-dehydro-4,5α-epoxy-6,7,2',3'-[1'-(3-isothiocyanatopropyl)-6',7'-benzoindolo)morphinan] |  | 93 nM
Cc1ccc(Cn2c3c(c4ccc5ccccc5c42)C[C@@]2(O)[C@H]4Cc5ccc(O)c6c5[C@@]2(CCN4CC2CC2)[C@H]3O6)cc1 [Compound 71] |  | 19 nM
Cc1cc2c3c([nH]c2c2ccccc12)[C@@H]1Oc2c(O)ccc4c2[C@@]12CCN(CC1CC1)[C@H](C4)[C@]2(O)C3 [Compound 13, 17-cyclopropylmethyl-3,14β-dihydroxy-6,7-dehydro-4,5α-epoxy-6,7,2',3'-(5'-methyl-6',7'-benzoindolo)morphinan] |  | 93 nM
Cn1c2c(c3cc4c5c(cccc5c31)CC4)C[C@@]1(O)[C@H]3Cc4ccc(O)c5c4[C@@]1(CCN3CC1CC1)[C@H]2O5 [Compound 84, 17-cyclopropylmethyl-3,14β-dihydroxy-6,7-dehydro-4,5α-epoxy-6,7,2',3'-(1'-methyl-5',6"-ethano-6',7'-benzoindolo)morphinan] |  | 39 nM
